Test results: patent US20090280160A1, “PHENYLEPHRINE PHARMACEUTICAL FORMULATIONS AND COMPOSITIONS FOR TRANSMUCOSAL ABSORPTION” (Schering-Plough Healthcare Products, Inc., priority 2007, published 2009)
Entries after “also recorded” stand apart in the source; their conditions may differ. Each block holds one compound with its values, some of them ahead of it.

Legend:
[1] = target: T1, α2c adrenoreceptor (Homo sapiens, UniProt P18825); experiment: Competition binding, [3H]-UK14304, α2c CHO cell membranes; details: for inhibition of [3H]-UK14304 binding, α2c (in words): CHO cell membranes
T1 construct: expressed in transfected cells; host or cells: CHO (Chinese hamster ovary) cells, membranes
T1 sequence (P18825 1-462): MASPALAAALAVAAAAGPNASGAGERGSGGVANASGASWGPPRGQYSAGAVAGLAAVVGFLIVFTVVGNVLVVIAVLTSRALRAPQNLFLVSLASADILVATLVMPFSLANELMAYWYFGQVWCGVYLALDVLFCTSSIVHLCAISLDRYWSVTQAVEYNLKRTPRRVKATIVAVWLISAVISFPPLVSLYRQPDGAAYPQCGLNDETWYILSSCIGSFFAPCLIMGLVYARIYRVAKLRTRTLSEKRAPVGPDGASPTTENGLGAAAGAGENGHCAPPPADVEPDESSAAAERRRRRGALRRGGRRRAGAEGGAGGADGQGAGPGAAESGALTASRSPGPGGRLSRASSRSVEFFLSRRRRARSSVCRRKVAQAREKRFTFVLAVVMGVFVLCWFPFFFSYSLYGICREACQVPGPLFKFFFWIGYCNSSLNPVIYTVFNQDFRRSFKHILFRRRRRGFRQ
Procedure: (§1) The affinity and activity of phenylephrine metabolites were evaluated in human recombinant α1 and α2 adrenoreceptor binding and activity assays. […] Affinity of the metabolites was determined by receptor binding assays. Functional activity of the metabolites was assessed using an [^35S]-GTPγS binding exchange assay for the α2 receptor subtypes and a cell-based calcium flux response for the α1 receptor subtypes.
Competition Binding Assays
Competition binding assays for the α2 adrenoreceptors were performed using 20 μg membrane protein per well in binding buffer (75 mM Tris-HCl pH 7.4, 12.5 mM MgCl2, […] EDTA, 0.2% bovine serum albumin). […] Binding was terminated by rapid filtration through GF/C unifilter plates, presoaked with 0.3% polyethylenimine, with five washes with 0.5 ml cold 50 mM Tris-HCl ph 7.4, using a Packard Filtermate Harvester. After drying, bound radioactivity was determined by liquid scintillation counting (Packard TopCount) with Microscint 20, 50 μl/well. Binding data were analyzed using GraphPad Prism.
(§2) Each metabolite was evaluated in each assay in at least 2 independent experiments and a representative assay of each metabolite/assay combination is shown.

[2] = target: T2, α1a adrenoreceptor (Homo sapiens, UniProt P35348); experiment: Competition binding, [3H]-prazosin, α1a CHO cell membranes
T2 construct: expressed in transfected cells
T2 sequence (P35348 1-466): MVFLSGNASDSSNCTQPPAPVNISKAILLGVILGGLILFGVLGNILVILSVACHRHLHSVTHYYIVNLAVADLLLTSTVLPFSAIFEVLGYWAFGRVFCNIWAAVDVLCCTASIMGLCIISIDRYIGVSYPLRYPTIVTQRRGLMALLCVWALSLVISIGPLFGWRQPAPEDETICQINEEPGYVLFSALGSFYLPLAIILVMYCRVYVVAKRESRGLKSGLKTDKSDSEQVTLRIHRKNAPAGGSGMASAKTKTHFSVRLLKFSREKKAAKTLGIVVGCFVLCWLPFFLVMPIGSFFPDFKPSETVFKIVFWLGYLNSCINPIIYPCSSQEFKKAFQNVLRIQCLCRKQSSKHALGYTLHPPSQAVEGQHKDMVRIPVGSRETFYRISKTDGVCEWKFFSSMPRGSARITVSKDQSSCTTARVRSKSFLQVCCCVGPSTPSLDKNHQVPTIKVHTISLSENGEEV

[3] = oral, approximately 24 mg of PE, healthy volunteers; cited from earlier work
[4] = target: T3, α2a adrenoreceptor (Homo sapiens, UniProt P08913); experiment: [35S]-GTPγS binding exchange, α2a CHO cell membranes; format: biochemical; details: for stimulation of [35S]-GTPγS binding, α2a (in words): CHO cell membranes
T3 construct: expressed in transfected cells; host or cells: CHO (Chinese hamster ovary) cells, membranes
T3 sequence (P08913 1-465): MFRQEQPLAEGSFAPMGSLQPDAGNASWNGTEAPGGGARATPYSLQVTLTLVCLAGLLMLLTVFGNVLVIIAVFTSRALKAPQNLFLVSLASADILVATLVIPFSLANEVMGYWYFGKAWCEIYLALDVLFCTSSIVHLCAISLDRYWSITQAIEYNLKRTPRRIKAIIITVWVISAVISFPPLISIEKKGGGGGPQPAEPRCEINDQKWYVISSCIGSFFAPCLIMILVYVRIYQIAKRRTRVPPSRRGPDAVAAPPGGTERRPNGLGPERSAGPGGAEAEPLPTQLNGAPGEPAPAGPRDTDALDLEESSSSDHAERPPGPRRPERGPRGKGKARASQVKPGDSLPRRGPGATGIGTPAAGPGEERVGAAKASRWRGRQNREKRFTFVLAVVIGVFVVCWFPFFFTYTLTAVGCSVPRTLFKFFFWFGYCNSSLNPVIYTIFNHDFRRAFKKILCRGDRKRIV
Procedure: as §1
(§3) Plates were counted on a Packard TopCount. The percent increase over basal binding of [^35S]-GTPγS, a measure of efficacy, was calculated as follows: 100×[[mean total sample cpm−basal cpm]÷by basal cpm]. Basal cpm was defined as the mean cpm in the absence of agonist compound minus the mean non-specific binding cpm.
as §2

[5] = target: T1, α2c adrenoreceptor; experiment: [35S]-GTPγS binding exchange, α2c CHO cell membranes; format: biochemical; details: for stimulation of [35S]-GTPγS binding, α2c (in words): CHO cell membranes
Procedure: as §1
as §3, with “Assay buffer was 75 mM Tris-HCl pH 7.4, 12.5 mM MgCl2, 2 mM EDTA and 1 μM GDP. Plates” for “Plates”
as §2

[6] = target: T2, α1a adrenoreceptor; experiment: Cellular calcium flux (FLIPR), α1a expressing CHO cells; format: cell-based; details: for increase in intracellular calcium, α1a calcium assay (in words): α1a expressing CHO cells
Procedure: as §1
Intracellular calcium levels were measured using a fluorometric imaging plate reader (FLIPR). Cells expressing α1 adrenoreceptors were cultured overnight at 15,000 cells/well in 96 well black-wall clear bottom plates (Packard). Adherent cells were loaded for 1 hour at 37° C. using the FLIPR Calcium Plus Assay Kit (Molecular Probes, Eugene, Oreg.), which included 2.5 mM probenecid (Sigma). Compounds (at 10 mM in 100% DMSO) were diluted in diluting buffer (HBSS, 20 mM HEPES, 2.5 mM probenecid, 0.5% BSA, pH 7.4). A titration of norepinephrine was included in every experiment and norepinephrine (at 1 μM) was also used as a plate standard on each assay plate. Cells were maintained at 37° C. throughout all calcium measurements. Fluorescence data was collected at 1 second interval for 60 seconds, followed by collection at 2 second intervals for 30 seconds. Background fluorescence was quantitated in wells containing cells with no additions and was subtracted from all experimental samples. All conditions were done in quadruplicate. Non-linear regression analysis using GraphPad Prism was used to calculate EC50 values.
as §2

[7] = listed as PE glucuronide batch 4
[8] = highest concentration evaluated (10 μM)

Compound: CNC[C@H](O)c1cccc(O[C@@H]2O[C@H](C(=O)O)[C@@H](O)[C@H](O)[C@H]2O)c1 [PE glucuronide, (R)-PE glucuronide]
- inhibition of [3H]-UK14304 binding, α2c (in words) [1]: weakly inhibits binding; also recorded: pharmacologically inactive
- inhibition of [3H]-UK14304 binding, α2c (in words) ([1]; listed as PE glucuronide b4): A small amount of binding
- inhibition of [3H]-UK14304 binding, α2c (in words) [1, 7]: minimal activity
- inhibition of 3H-prazosin binding, α1a (in words) ([2]; CHO cell membranes): No appreciable binding; also recorded: no binding affinity; also recorded: pharmacologically inactive
- metabolite excreted in the urine [3]: 12 % of dose
- stimulation of [35S]-GTPγS binding, α2a (in words) [4]: nor did it activate binding; also recorded: pharmacologically inactive
- activity in α2a [35S]-GTPγS assay (in words) ([4]; highest concentration, 100 μM): very weak binding
- stimulation of [35S]-GTPγS binding, α2c (in words) [5]: nor did it activate binding; also recorded: pharmacologically inactive
- stimulation of [35S]-GTPγS binding, α2c (in words) ([5]; listed as PE glucuronide b2): No stimulatory activity
- fold less potent than PE in inducing a calcium increase, α1a cells ([6]; batch b4, approximately 0.28% PE): 300-450 fold
- increase in intracellular calcium, α1a calcium assay (in words) [6]: consistent with level of contaminating phenylephrine; also recorded: pharmacologically inactive
- increase in intracellular calcium, α1a calcium assay (in words) [6, 7]: minimal activity

- Ki ([1]; [3H]-UK14304, read-out: Ki, a2c Binding (class symbol)): > 100 µM
- binding / affinity, α2c receptor (in words) ([1]; at 100 μM (highest concentration evaluated)): no affinity
- Ki ([2]; [3H]-prazosin, read-out: Ki, a1a Binding (class symbol)): > 100 µM
- stimulation of [35S]-GTPγS binding, α2a (in words) [4]: no activity
- agonist activity, α2a [35S]-GTPγS assay (in words) [4, 8]: no activity
- EC50 ([4]; read-out: EC50, a2a GTPγS (class symbol)): > 10 µM
- stimulation of [35S]-GTPγS binding, α2c (in words) [5]: no activity
- agonist activity, α2c [35S]-GTPγS assay (in words) [5, 8]: no activity
- EC50 ([5]; read-out: EC50, a2c GTPγS (class symbol)): > 10 µM
- agonist activity, α1a calcium assay (in words) [6, 8]: no activity
- increase in intracellular calcium, α1a calcium assay (in words) [6]: not active
- EC50 ([6]; α1a-expressing CHO cells, read-out: EC50, a1a Calcium (class symbol)): > 10 µM
Compound: O=C(O)C(O)c1cccc(O)c1 (stereo not drawn) [3-hydroxymandelic acid]
- inhibition of [3H]-UK14304 binding, α2c (in words) [1]: but not; also recorded: no significant binding
- binding / affinity, α1a receptor (in words) ([2]; concentrations up to 100 μM): No appreciable binding; also recorded: no affinity
- metabolite excreted in the urine [3]: 30 % of dose
